Measured values from patent US6352958B1, “Cycloimido-substituted benzofused heterocyclic herbicides” (FMC Corporation, priority 1997, dated 2002).

Key:
Format in all cases: in vivo
[1] = test system: soybean (Glycine max var. Winchester); test: Preemergence herbicidal activity, soybean; conditions: Rate of Application 0.3 Kg/Ha, examined after 12-17 days
Experimental: (§1) The benzofused heterocyclic compounds of this invention were tested for pre- and postemergence herbicidal activity using a variety of crops and weeds. The test plants included soybean (Glycine max var. Winchester), field corn (Zea mays var. Pioneer 3732), wheat (Triticum aestivum var. Lew), morningglory (Ipomea lacunosa or Ipomea hederacea), velvetleaf (Abutilon theophrasti), green foxtail (Setaria viridis), Johnsongrass (Sorghum halepense), blackgrass (Aloepecurus myosuroides), common chickweed (Stellaria media), and common cocklebur (Xanthium strumarium L.).
(§2) For preemergence testing, two disposable fiber flats (8 cm×15 cm×25 cm) for each rate of application of each candidate herbicide were filled to an approximate depth of 6.5 cm with steam-sterilized sandy loam soil. The soil was leveled and impressed with a template to provide five evenly spaced furrows 13 cm long and 0.5 cm deep in each flat. Seeds of soybean, wheat, corn, green foxtail, and johnsongrass were planted in the furrows of the first flat, and seeds of velvetleaf, morningglory, common chickweed, cocklebur, and blackgrass were planted in the furrows of the second flat. The five-row template was employed to firmly press the seeds into place. A topping soil of equal portions of sand and sandy loam soil was placed uniformly on top of each flat to a depth of approximately 0.5 cm. Flats for postemergence testing were prepared in the same manner except that they were planted 9-14 days prior to the preemergence flats and were placed in a greenhouse and watered, thus allowing the seeds to germinate and the foliage to develop.
(§3) In both pre- and postemergence tests, a stock solution of the candidate herbicide was prepared by dissolving 0.27 g of the compound in 20 mL of water/acetone (50/50) containing 0.5% v/v sorbitan monolaurate. For an application rate of 3000 g/ha of herbicide a 10 mL portion of the stock solution was diluted with water/acetone (50/50) to 45 mL.
(§4) The preemergence flats were initially subjected to a light water spray. The four flats were placed two by two along a conveyor belt (i.e., the two preemergence followed by the two postemergence flats). The conveyor belt fed under a spray nozzle mounted about ten inches above the post-emergent foliage. The preemergent flats were elevated on the belt so that the soil surface was at the same level below the spray nozzle as the foliage canopy of the postemergent plants. The spray of herbicidal solution was commenced and once stabilized, the flats were passed under the spray at a speed to receive a coverage equivalent of 100 L/ha. At this coverage the application rates are those shown in the above table for the individual herbicidal solutions. The preemergence flats were watered immediately thereafter, placed in the greenhouse and watered regularly at the soil surface. The postemergence flats were immediately placed in the green-house and not watered until 24 hours after treatment with the test solution. Thereafter they were regularly watered at ground level. After 12-17 days the plants were examined and the phytotoxicity data were recorded.
(§5) Phytotoxicity data were taken as percent control. Percent control was determined by a method similar to the 0 to 100 rating system disclosed in “Research Methods in Weed Science,” 2nd ed., B. Truelove, Ed.; Southern Weed Science Society; Auburn University, Auburn, Ala., 1977.

[2] = test system: wheat (Triticum aestivum var. Lew); test: Preemergence herbicidal activity, wheat; conditions: Rate of Application 0.3 Kg/Ha, examined after 12-17 days
Experimental: as §1, §2, §3, §4, §5

[3] = test system: field corn (Zea mays var. Pioneer 3732); test: Preemergence herbicidal activity, corn; conditions: Rate of Application 0.3 Kg/Ha, examined after 12-17 days
Experimental: as §1, §2, §3, §4, §5

[4] = test system: velvetleaf (Abutilon theophrasti); test: Preemergence herbicidal activity, velvetleaf; conditions: Rate of Application 0.3 Kg/Ha, examined after 12-17 days
Experimental: as §1, §2, §3, §4, §5

[5] = test system: morningglory (Ipomea lacunosa or Ipomea hederacea); test: Preemergence herbicidal activity, morningglory; conditions: Rate of Application 0.3 Kg/Ha, examined after 12-17 days
Experimental: as §1, §2, §3, §4, §5

[6] = test system: common chickweed (Stellaria media); test: Preemergence herbicidal activity, chickweed; conditions: Rate of Application 0.3 Kg/Ha, examined after 12-17 days
Experimental: as §1, §2, §3, §4, §5

[7] = test system: common cocklebur (Xanthium strumarium L.); test: Preemergence herbicidal activity, cocklebur; conditions: Rate of Application 0.3 Kg/Ha, examined after 12-17 days
Experimental: as §1, §2, §3, §4, §5

[8] = test system: green foxtail (Setaria viridis); test: Preemergence herbicidal activity, green foxtail; conditions: Rate of Application 0.3 Kg/Ha, examined after 12-17 days
Experimental: as §1, §2, §3, §4, §5

[9] = test system: Johnsongrass (Sorghum halepense); test: Preemergence herbicidal activity, johnsongrass; conditions: Rate of Application 0.3 Kg/Ha, examined after 12-17 days
Experimental: as §1, §2, §3, §4, §5

[10] = test system: soybean (Glycine max var. Winchester); test: Postemergence herbicidal activity, soybean; conditions: rate of application 0.3 Kg/Ha, rated after 12-17 days
Experimental: as §1, §2, §3, §4, §5

[11] = test system: wheat (Triticum aestivum var. Lew); test: Postemergence herbicidal activity, wheat; conditions: rate of application 0.3 Kg/Ha, rated after 12-17 days
Experimental: as §1, §2, §3, §4, §5

[12] = test system: field corn (Zea mays var. Pioneer 3732); test: Postemergence herbicidal activity, corn; conditions: rate of application 0.3 Kg/Ha, rated after 12-17 days
Experimental: as §1, §2, §3, §4, §5

[13] = test system: velvetleaf (Abutilon theophrasti); test: Postemergence herbicidal activity, velvetleaf; conditions: rate of application 0.3 Kg/Ha, rated after 12-17 days
Experimental: as §1, §2, §3, §4, §5

[14] = test system: morningglory (Ipomea lacunosa or Ipomea hederacea); test: Postemergence herbicidal activity, morningglory; conditions: rate of application 0.3 Kg/Ha, rated after 12-17 days
Experimental: as §1, §2, §3, §4, §5

[15] = test system: common chickweed (Stellaria media); test: Postemergence herbicidal activity, chickweed; conditions: rate of application 0.3 Kg/Ha, rated after 12-17 days
Experimental: as §1, §2, §3, §4, §5

[16] = test system: common cocklebur (Xanthium strumarium L.); test: Postemergence herbicidal activity, cocklebur; conditions: rate of application 0.3 Kg/Ha, rated after 12-17 days
Experimental: as §1, §2, §3, §4, §5

[17] = test system: green foxtail (Setaria viridis); test: Postemergence herbicidal activity, green foxtail; conditions: rate of application 0.3 Kg/Ha, rated after 12-17 days
Experimental: as §1, §2, §3, §4, §5

[18] = test system: Johnsongrass (Sorghum halepense); test: Postemergence herbicidal activity, johnsongrass; conditions: rate of application 0.3 Kg/Ha, rated after 12-17 days
Experimental: as §1, §2, §3, §4, §5

Row | Compound | PREEMERGENCE HERBICIDAL ACTIVITY (% CONTROL) SOY [1] [%] | PREEMERGENCE HERBICIDAL ACTIVITY (% CONTROL) WHT [2] [%] | PREEMERGENCE HERBICIDAL ACTIVITY (% CONTROL) CRN [3] [%] | PREEMERGENCE HERBICIDAL ACTIVITY (% CONTROL) ABUTH [4] [%] | PREEMERGENCE HERBICIDAL ACTIVITY (% CONTROL) IPOSS [5] [%] | PREEMERGENCE HERBICIDAL ACTIVITY (% CONTROL) STEME [6] [%] | PREEMERGENCE HERBICIDAL ACTIVITY (% CONTROL) XANPE [7] [%] | PREEMERGENCE HERBICIDAL ACTIVITY (% CONTROL) SETVI [8] [%] | PREEMERGENCE HERBICIDAL ACTIVITY (% CONTROL) SORHA [9] [%] | Postemergence herbicidal activity (% control) SOY [10] [%] | Postemergence herbicidal activity (% control) WHT [11] [%] | Postemergence herbicidal activity (% control) CRN [12] [%] | Postemergence herbicidal activity (% control) ABUTH [13] [%] | Postemergence herbicidal activity (% control) IPOSS [14] [%] | Postemergence herbicidal activity (% control) STEME [15] [%] | Postemergence herbicidal activity (% control) XANPE [16] [%] | Postemergence herbicidal activity (% control) SETVI [17] [%] | Postemergence herbicidal activity (% control) SORHA [18] [%]
1 | COC(=O)Cc1nc2c(-n3c(=O)cc(C(F)(F)F)n(C)c3=O)c(F)cc(Br)c2o1 [Compound 49] | 95 | 50 | 80 | 100 | 100 | 20 | 90 | 100 | 90 | 95 | 70 | 80 | 100 | 100 | 40 | 30 | 100 | 90
2 | CCCc1cc2c(Cl)cc(F)c(-n3c(=O)cc(C(F)(F)F)n(C)c3=O)c2o1 [Compound 223] | 100 | 50 | 80 | 100 | 100 | 100 | 90 | 100 | 100 | 95 | 40 | 90 | 100 | 100 | 100 | 100 | 100 | 100
3 | Cn1c(C(F)(F)F)cc(=O)n(-c2ccc(Cl)c3cc(C(C)(C)C)oc23)c1=O [Compound 226] | 70 | 50 | 70 | 100 | 90 | 90 | 60 | 100 | 80 | 70 | 40 | 80 | 100 | 95 | 80 | 90 | 100 | 80
4 | Cn1c(C(F)(F)F)cc(=O)n(-c2c(F)cc(F)c3cc(C(C)(C)C)oc23)c1=O [Compound 228] | 100 | 80 | 95 | 100 | 100 | 100 | 90 | 100 | 100 | 90 | 50 | 80 | 100 | 100 | 80 | 95 | 100 | 90
5 | Cn1c(C(F)(F)F)cc(=O)n(-c2ccc(Cl)c3cc(CBr)oc23)c1=O [Compound 232] | 20 | 30 | 50 | 90 | 80 | 20 | 10 | 40 | 25 | 75 | 50 | 30 | 100 | 80 | 20 | 40 | 30 | 10
6 | Cn1c(C(F)(F)F)cc(=O)n(-c2ccc(Cl)c3cc(C(Br)Br)oc23)c1=O [Compound 233] | 40 | 30 | 70 | 100 | 95 | 20 | 20 | 60 | 50 | 90 | 30 | 60 | 100 | 100 | 30 | 30 | 30 | 30
